Test system: T1, Fusant-06 L-ASNase
T1 construct: native extracellular enzyme from fusant fermentation broth; PEG/citrate ATPS then Sephadex G-100; may be recombined from both parents
Test: ammonia release (Imada assay); Lineweaver-Burk plot
Assay type: biochemical
Settings: L-asparagine 0.005–1.28 mM; 5 µg/mL (0.043 µM) enzyme; optimum conditions (pH and temperature not stated for the kinetics)

Km: 66.7 µM
SMILES: NC(=O)C[C@H](N)C(=O)O [L-asparagine]
